Here are results for 24 molecules from PubChem BioAssay AID330 (DTP/NCI, 2004).

The assay relates to P388 leukemia ip, CD2F1 mice, survival T/C. Briefly: NCI In Vivo Anticancer Drug Screen. Data for tumor model P388 Leukemia (intraperitoneal) in CD2F1 (CDF1) mice. Conditions: endpoint: median survival time, higher = longer survival. An outline of the steps:
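Mice carrying the transplanted tumor received test compound or vehicle. Survival was recorded in each group, and the value is the treated-group measurement divided by that of the vehicle-treated control group.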

[1] abbreviates: dose: 6.25 mg/kg/injection, schedule: Q01DX009 (ip), vehicle: saline with Tween-80.
Setting [2] is: dose: 12.5 mg/kg/injection, schedule: Q01DX009 (ip), vehicle: saline with Tween-80.
Where [3] appears, read: dose: 200.0 mg/kg/injection, schedule: Q01DX009 (ip), vehicle: saline with Tween-80.
[4] abbreviates: dose: 50.0 mg/kg/injection, schedule: Q01DX009 (ip), vehicle: Klucel (hydroxypropylcellulose) (HPC).
The mark [5] stands for this setting: dose: 100.0 mg/kg/injection, schedule: Q01DX009 (ip), vehicle: Klucel (hydroxypropylcellulose) (HPC).
The mark [6] stands for this setting: dose: 200.0 mg/kg/injection, schedule: Q01DX009 (ip), vehicle: Klucel (hydroxypropylcellulose) (HPC).
The mark [7] stands for this setting: dose: 60.0 mg/kg/injection, schedule: Q01DX005 (ip), vehicle: saline with Tween-80.
[8] abbreviates: dose: 120.0 mg/kg/injection, schedule: Q01DX005 (ip), vehicle: saline with Tween-80.
[9] abbreviates: dose: 50.0 mg/kg/injection, schedule: Q01DX005 (ip), vehicle: saline with Tween-80.
Where [10] appears, read: dose: 100.0 mg/kg/injection, schedule: Q01DX005 (ip), vehicle: saline with Tween-80.
[11] abbreviates: dose: 200.0 mg/kg/injection, schedule: Q01DX005 (ip), vehicle: saline with Tween-80.
Setting [12] is: dose: 25.0 mg/kg/injection, schedule: Q01DX009 (ip), vehicle: saline with Tween-80.
Setting [13] is: dose: 50.0 mg/kg/injection, schedule: Q01DX005 (ip), vehicle: Klucel (hydroxypropylcellulose) (HPC).
[14] abbreviates: dose: 100.0 mg/kg/injection, schedule: Q01DX005 (ip), vehicle: Klucel (hydroxypropylcellulose) (HPC).
Where [15] appears, read: dose: 200.0 mg/kg/injection, schedule: Q01DX005 (ip), vehicle: Klucel (hydroxypropylcellulose) (HPC).
Where [16] appears, read: dose: 12.5 mg/kg/injection, schedule: Q01DX001 (ip), vehicle: saline with Tween-80.
Setting [17] is: dose: 25.0 mg/kg/injection, schedule: Q01DX001 (ip), vehicle: saline with Tween-80.
[18] abbreviates: dose: 100.0 mg/kg/injection, schedule: Q01DX009 (ip), vehicle: saline with Tween-80.
The mark [19] stands for this setting: dose: 50.0 mg/kg/injection, schedule: Q01DX001 (ip), vehicle: saline with Tween-80.

Values joined by “and” are separate entries in the source; they are usually repeats but may differ in a detail not shown here. Equal entries are not always repeated. Inconclusive results and toxic doses are left out.

Take `COCCCNC(=S)N/N=C/c1cc(Cl)cc(Cl)c1O`: the T/C reads like this: under setting [1], 92 % of control; under setting [2], 87 % of control; under setting [3], 93 % of control.
Take `O=C(OCCCN1CCCC1)C(c1ccccc1)C1C=CCC1` (stereo not drawn): the T/C (dose: 6.25 mg/kg/injection, schedule: Q01DX009 (ip), vehicle: Klucel (hydroxypropylcellulose) (HPC)) is 100 % of control; the T/C (dose: 12.5 mg/kg/injection, schedule: Q01DX009 (ip), vehicle: Klucel (hydroxypropylcellulose) (HPC)) was 98 % of control; the T/C (dose: 25.0 mg/kg/injection, schedule: Q01DX009 (ip), vehicle: Klucel (hydroxypropylcellulose) (HPC)) was 100 % of control; the T/C under setting [4] was 101 % of control; the T/C under setting [5] was 95 % of control; the T/C under setting [6] is 100 % of control. The T/C (dose: 400.0 mg/kg/injection, schedule: Q01DX009 (ip), vehicle: Klucel (hydroxypropylcellulose) (HPC)) is 100 % of control.
With `COc1ccc2c(O)c(S(=O)(=O)c3ccc(Cl)cc3)c(=O)oc2c1`, the T/C by setting is: under setting [7], 102 % of control; under setting [8], 112 % of control; (dose: 240.0 mg/kg/injection, schedule: Q01DX005 (ip), vehicle: saline with Tween-80) 102 % of control.
With `O=C(NC(Cc1ccc(O)cc1)C(=O)O)c1ccccc1` (stereo not drawn), the T/C is 99 % of control under setting [9], 100 % of control under setting [10] and 88 % of control under setting [11].
Consider `CCOC(=O)c1c[nH]c2ccc(N(CCCl)CCCl)cc12`, for which the T/C is 160 % of control (dose: 5.33 mg/kg/injection, schedule: Q04DX003 (ip), vehicle: saline with Tween-80); 150 % of control under setting [1]; 160 % of control (dose: 8.0 mg/kg/injection, schedule: Q04DX003 (ip), vehicle: saline with Tween-80); 170 % of control (dose: 12.0 mg/kg/injection, schedule: Q04DX003 (ip), vehicle: saline with Tween-80); 181 % of control under setting [2]; 185 % of control (dose: 18.0 mg/kg/injection, schedule: Q04DX003 (ip), vehicle: saline with Tween-80). The T/C under setting [12] is 109 % of control.
In the case of `Cc1ccc(S(=O)(=O)SC(C)(C)C)cc1`, the T/C reads like this: under setting [13], 112 % of control; under setting [14], 112 % of control; under setting [15], 112 % of control.
Take `Cc1cc2cccc(Br)c(=O)c2o1`: the T/C (dose: 6.25 mg/kg/injection, schedule: Q01DX001 (ip), vehicle: saline with Tween-80) was 95 % of control; the T/C under setting [16] is 100 % of control; the T/C under setting [17] was 104 % of control.
On to `C=C(C)C1Cc2c(ccc3c(=O)c4c(oc23)c(=O)oc2cc(OC)c(OC)cc24)O1` (stereo not drawn), for which the T/C is, setting by setting: (dose: 100.0 mg/kg/injection, schedule: Q04DX003 (ip), vehicle: saline with Tween-80) 103 % of control; (dose: 200.0 mg/kg/injection, schedule: Q04DX003 (ip), vehicle: saline with Tween-80) 98 % of control; (dose: 400.0 mg/kg/injection, schedule: Q04DX003 (ip), vehicle: saline with Tween-80) 105 % of control.
For the molecule `Cc1ccc(NCCNCCO)c2c(=O)c3cc(O)ccc3sc12`, the T/C is 150 % of control under setting [1]; 156 % of control and 169 % of control under setting [2]; 103 % of control under setting [12].
`CSC(=CC(=O)c1ccco1)SC`: the T/C was 98 % of control under setting [7] and 96 % of control under setting [8].
Take `O=C1c2ccccc2C(=O)N1CC1CC(S(=O)(=O)c2ccccc2)=NO1` (stereo not drawn): the T/C under setting [9] is 94 % of control, the T/C under setting [10] was 94 % of control and the T/C under setting [11] was 102 % of control.
With `c1ccc(OP(Oc2ccccc2)(c2ccccc2)(c2ccccc2)c2ccccc2)cc1`, the T/C was 97 % of control under setting [4], 99 % of control under setting [5] and 111 % of control under setting [6].
With `N#C[C@H]1C[C@@H](c2ccccc2)N(c2ccccc2)O1`, the T/C (dose: 50.0 mg/kg/injection, schedule: Q01DX005 (ip), vehicle: saline + Tween-80 + alcohol) is 98 % of control; the T/C (dose: 100.0 mg/kg/injection, schedule: Q01DX005 (ip), vehicle: saline + Tween-80 + alcohol) is 100 % of control; the T/C (dose: 200.0 mg/kg/injection, schedule: Q01DX005 (ip), vehicle: saline + Tween-80 + alcohol) was 100 % of control.
Consider `O=C(OCC(Cl)(Cl)Cl)N1[C@H]2C3=C(CCC3)[C@@H]([C@H]3O[C@H]32)N1C(=O)OCC(Cl)(Cl)Cl`, for which the T/C is, setting by setting: under setting [13], 97 % of control; under setting [14], 97 % of control; under setting [15], 97 % of control.
Consider `N#Cc1ccccc1CC(O)(c1ccccc1)c1ccccc1`, for which the T/C is 99 % of control under setting [18]; 100 % of control under setting [3]; 91 % of control (dose: 400.0 mg/kg/injection, schedule: Q01DX009 (ip), vehicle: saline with Tween-80).
`CCc1cn[nH]c(=O)c1`: the T/C runs as follows: (dose: 50.0 mg/kg/injection, schedule: Q01DX009 (ip), vehicle: saline) 110 % of control; (dose: 100.0 mg/kg/injection, schedule: Q01DX009 (ip), vehicle: saline) 96 % of control; (dose: 200.0 mg/kg/injection, schedule: Q01DX009 (ip), vehicle: saline) 104 % of control.
In the case of `S=P1(Sc2ccccc2)Oc2ccccc2O1`, the T/C runs as follows: under setting [16], 99 % of control; under setting [17], 100 % of control; under setting [19], 106 % of control; (dose: 100.0 mg/kg/injection, schedule: Q01DX001 (ip), vehicle: saline with Tween-80) 90 % of control.
Turning to `CCN1CCC(Nc2ccnc3cc(Cl)ccc23)CC1`, the T/C by setting is: under setting [13], 99 % of control; under setting [9], 104 % of control; under setting [14], 94 % of control; under setting [10], 110 % of control.
For `COC(=O)C1(CC(=O)c2cccc([N+](=O)[O-])c2)NC(=S)NC(=O)C1C#N` (stereo not drawn), the T/C runs as follows: (dose: 60.0 mg/kg/injection, schedule: Q01DX005 (ip), vehicle: suspension in saline) 100 % of control; (dose: 120.0 mg/kg/injection, schedule: Q01DX005 (ip), vehicle: suspension in saline) 90 % of control; (dose: 240.0 mg/kg/injection, schedule: Q01DX005 (ip), vehicle: suspension in saline) 90 % of control.
On to `COc1cc(OC)c(OC)cc1/C=C\c1nccc2ccccc12`, for which the T/C was 99 % of control (dose: 50.0 mg/kg/injection, schedule: Q01DX009 (ip), vehicle: saline with Tween-80); 96 % of control under setting [18]; 96 % of control under setting [3].
As for `CCn1cc(C(=O)O)c(=O)c2nc(S(C)=O)sc21` (stereo not drawn), the T/C by setting is: (dose: 15.0 mg/kg/injection, schedule: Q01DX005 (ip), vehicle: saline with Tween-80) 103 % of control; (dose: 30.0 mg/kg/injection, schedule: Q01DX005 (ip), vehicle: saline with Tween-80) 108 % of control; under setting [7], 123 % of control and 97 % of control.
Turning to `Cc1ccc(/[N+]([O-])=N/N2C(=O)c3ccccc3C2=O)cc1`, the T/C is, setting by setting: (dose: 25.0 mg/kg/injection, schedule: Q01DX005 (ip), vehicle: Klucel (hydroxypropylcellulose) (HPC)) 101 % of control; under setting [13], 106 % of control; under setting [14], 108 % of control.
On to `CCCCC(C(=O)OCC)/C(C)=N\NC(N)=S` (stereo not drawn), for which the T/C by setting is: (dose: 60.0 mg/kg/injection, schedule: Q01DX005 (ip), vehicle: Klucel (hydroxypropylcellulose) (HPC)) 100 % of control; (dose: 120.0 mg/kg/injection, schedule: Q01DX005 (ip), vehicle: Klucel (hydroxypropylcellulose) (HPC)) 99 % of control; (dose: 240.0 mg/kg/injection, schedule: Q01DX005 (ip), vehicle: Klucel (hydroxypropylcellulose) (HPC)) 98 % of control.
Take `COC(=O)c1c(C(=O)OC)c2ccc3ccccc3n2c1-c1ccccc1`: the T/C is 115 % of control under setting [16]; 94 % of control under setting [17]; 94 % of control under setting [19]; 93 % of control (dose: 200.0 mg/kg/injection, schedule: Q01DX001 (ip), vehicle: saline with Tween-80); 100 % of control (dose: 400.0 mg/kg/injection, schedule: Q01DX001 (ip), vehicle: saline with Tween-80).
